For series [1], the system named is PD1-ss+10aa/Gaussia Luciferase. Put plainly: Dox-Induced PD1-ss-Gluc Assay. It counts as cell-based. As to conditions: 24 hr Dox induction; 293FRT/TO cells; read-out: 24 hr Dox Inducible PD1ssGluc 293FRT/TO: Mean IC50. The procedure, abridged: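 The cell line was made by transfecting Flp-In 293 T-REx cells with a PD1 signal sequence+10aa–Gaussia luciferase fusion under T-REx control and selecting with hygromycin and blasticidin. Cells were seeded, and next day compound plus doxycycline was added at 37 °C, 5% CO2.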

Series [2] relates to TNFα-FL/Gaussia Luciferase. Put plainly: Dox Induced TNFα-FL-Gluc Assay. The conditions noted are these: for pIC50: 24 hr Dox induction, 293FRT/TO cells, read-out: 24 hr Dox Inducible TNFaFLGluc 293FRT/TO: Mean IC50; for 24 hr Dox Inducible TNFaFLGluc 293FRT/TO: TNF/PD1: ratio of TNFaFLGluc IC50 to PD1ssGluc IC50. It counts as cell-based. The method, boiled down:
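Compound was added with doxycycline to cells plated a day earlier, incubating at 37° C under 5% CO2. The reporter line is 293 T-REx expressing a TNFα (1-233)–Gaussia luciferase fusion under tetracycline-regulated control.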

The subject of series [3] is HER3-ss+4aa/Gaussia Luciferase. Put plainly: Dox-Induced Her3-ss-Gluc Assay. It counts as cell-based. As to conditions: 24 hr Dox induction; 293FRT/TO cells; read-out: 24 hr Dox Inducible Her3(ss + 4)Gluc 293FRT/TO: Mean IC50. The method, boiled down:
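Compounds were diluted in DMSO/media containing doxycycline. They were added to Flp-In 293 T-REx cells plated the previous day, then incubated at 37 °C under 5% CO2. These cells stably express, under T-REx control, Gaussia luciferase fused to the HER3 signal sequence plus 4 amino acids.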

Series [4] deals with IL-2-FL/Gaussia Luciferase. Put plainly: Dox Induced IL2-FL-Gluc Assay. The conditions noted are these: for pIC50: 24 hr Dox induction, 293FRT/TO cells, read-out: 24 hr Dox Inducible IL2FLGluc 293FRT/TO: Mean IC50; for 24 hr Dox Inducible IL2FLGluc 293FRT/TO: IL2/PD1: ratio of IL2FLGluc IC50 to PD1ssGluc IC50. It counts as cell-based. The method, boiled down: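 Compounds in DMSO/medium with doxycycline were applied to a 293 T-REx stable line expressing an IL-2 (aa 1-153)–Gaussia luciferase fusion under tetracycline-regulated control, cells seeded one day earlier; incubation at 37 °C, 5% CO2. Structures drawn without stereochemistry were tested as stereoisomer mixtures.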

Series [5] relates to multiple myeloma cell line NCI-H929. Put plainly: H929 Cell Viability Assay. The class given is cell-based, human. The conditions noted are these: Homo sapiens, NCI-H929, 48 h, NCI-H929 cells, Celltiter-Glo. The procedure, abridged: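 Luminescent CellTiter-Glo read-out of viability after a 48 h exposure (37° C, 5% CO2) of NCI-H929 myeloma cells to compound dilutions in RPMI 1640 plus 10% FBS. Data for structures drawn without stereochemistry refer to stereoisomer mixtures.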

Series [6] deals with multiple myeloma cell line U266B1. Put plainly: U266 Cell Viability Assay. The class given is cell-based, human. As to conditions: Homo sapiens, U-266, 48 h, U266B1 cells, Celltiter-Glo. The method, boiled down: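 CellTiter-Glo luminescence was read after a 48 h compound exposure (37 °C, 5% CO2) of human U266B1 myeloma cells grown in 10% FBS-supplemented RPMI 1640. Data for structures shown without defined stereochemistry refer to stereoisomer mixtures.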

A short description of series [7]: Liver Microsome Stability Assay (rat). As to conditions: rat liver microsomes, with NADPH, 1.0 uM compound.
Procedure: (§1) Stability of a compound was assessed in the presence of liver microsomes from various sources—mouse, rat, monkey and human liver microsomes. 1.0 uM compound, 0.4% DMSO in 0.1 M Potassium Phosphate with 1.0 mg/mL liver microsomes, were incubated at 37° C. with or without 1 mM NADPH. The samples were quenched at 0, and 30 minutes.
The nature of series [8]: Liver Microsome Stability Assay (mouse). The conditions noted are these: mouse liver microsomes, with NADPH, 1.0 uM compound.
Procedure: as §1
Series [9] is described as follows: Liver Microsome Stability Assay (human). As to conditions: human liver microsomes, with NADPH, 1.0 uM compound.
Procedure: as §1
A short description of series [10]: Liver Microsome Stability Assay (monkey). The conditions noted are these: monkey liver microsomes, with NADPH, 1.0 uM compound.
Procedure: as §1

pEC50, pIC50: −log10 of the molar value.

Consider 3 compounds from patent US20230286973A1, “PROTEIN SECRETION INHIBITORS” (KEZAR LIFE SCIENCES, priority 2020, published 2023).

For `Cc1ocnc1/C=C/c1csc(NC(=O)c2cccn2Cc2ccncc2)n1` [Compound B33, (E)-N-(4-(2-(5-methyloxazol-4-yl)vinyl)thiazol-2-yl)-1-(pyridin-4-ylmethyl)-1H-pyrrole-2-carboxamide], the pIC50 in series [1] is 7.20; in series [2] it was less than 4.60; in series [3], 5.25; in [4], 5.04. Further, the “24 hr Dox Inducible TNFaFLGluc 293FRT/TO: TNF/PD1” value in series [2] is greater than 392. Besides, the “24 hr Dox Inducible IL2FLGluc 293FRT/TO: IL2/PD1” value in series [4] worked out at 140. Moreover, the results for the pEC50 in series [5] and in series [6] were 4.62 and less than 4.60, respectively. Also, the “Liver Microsome Stability (Multiple Species): Rat - % Remaining after 30 min w/NADPH” value in series [7] was determined as 0.28%. For the same compound, the “Liver Microsome Stability (Multiple Species): Mouse - % Remaining after 30 min w/NADPH” value in series [8] is given as 4.32%. The “Liver Microsome Stability (Multiple Species): Human - % Remaining after 30 min w/NADPH” value in [9] was found to be 0.68%. Also, the “Liver Microsome Stability (Multiple Species): Monkey - % Remaining after 30 min w/NADPH” value in [10] came to 1.26%.

In the case of `C[S+]([O-])N1CC(Oc2ccc(N3CCC[C@@H]3c3csc(NC(=O)c4cccn4Cc4ccnc(F)c4)n3)cc2)C1` (stereo partly drawn) [Compound A153, 1-((2-fluoropyridin-4-yl)methyl)-N-(4-((2R)-1-(4-((1-(methylsulfinyl)azetidin-3-yl)oxy)phenyl)pyrrolidin-2-yl)thiazol-2-yl)-1H-pyrrole-2-carboxamide], the pIC50 in series [1] is 7.43; in series [2], 6.06; in [3], 7.19; in series [4] it was 7.04. In series [2], the “24 hr Dox Inducible TNFaFLGluc 293FRT/TO: TNF/PD1” value is 23.5. For the same compound, the “24 hr Dox Inducible IL2FLGluc 293FRT/TO: IL2/PD1” value in [4] is 2.4. For the same compound, the pEC50 is 5.99 in series [5] and less than 4.60 in [6]. The “Liver Microsome Stability (Multiple Species): Rat - % Remaining after 30 min w/NADPH” value in series [7] is 19.8%. In series [8], the “Liver Microsome Stability (Multiple Species): Mouse - % Remaining after 30 min w/NADPH” value is 1.09%. Also, in series [9], the “Liver Microsome Stability (Multiple Species): Human - % Remaining after 30 min w/NADPH” value stood at 1.88%. The “Liver Microsome Stability (Multiple Species): Monkey - % Remaining after 30 min w/NADPH” value in series [10] is reported as 2.49%.

As to `N#CCn1cnc(/C=C/c2csc(NC(=O)c3cccn3Cc3ccnc(F)c3)n2)c1` [Compound B112, (E)-N-(4-(2-(1-(cyanomethyl)-1H-imidazol-4-yl)vinyl)thiazol-2-yl)-1-((2-fluoropyridin-4-yl)methyl)-1H-pyrrole-2-carboxamide], the pIC50 is 6.66 in [1], less than 4.60 in [2], less than 4.60 in series [3] and less than 4.60 in series [4]. Besides, the “24 hr Dox Inducible TNFaFLGluc 293FRT/TO: TNF/PD1” value in [2] is reported as greater than 115. Further, the “24 hr Dox Inducible IL2FLGluc 293FRT/TO: IL2/PD1” value in [4] is greater than 110. Moreover, the pEC50 in series [5] and in series [6] was less than 4.60 throughout. Moreover, the “Liver Microsome Stability (Multiple Species): Rat - % Remaining after 30 min w/NADPH” value in series [7] came out at 41.8%. The “Liver Microsome Stability (Multiple Species): Mouse - % Remaining after 30 min w/NADPH” value in [8] is given as 66.5%. Moreover, the “Liver Microsome Stability (Multiple Species): Human - % Remaining after 30 min w/NADPH” value in series [9] is 1.7%. Besides, the “Liver Microsome Stability (Multiple Species): Monkey - % Remaining after 30 min w/NADPH” value in series [10] was determined as 1.11%.
